Patent publication US9951025B2, “Halogenopyrazoles as inhibitors of thrombin” (VERSEON CORPORATION, priority 2013, dated 2018)

Target: T1, Human thrombin (Homo sapiens, UniProt P00734)
T1 construct: purchased Haematologic Technologies Inc
Assay: thrombin protease inhibition assay, chromogenic substrate S-2238
Type: biochemical
Settings: 3 nM human thrombin, 125 μM S-2238, 10 min pre-incubation, RT
Procedure: Compounds described herein can be assayed, by a variety of methods known in the art and described herein, for inhibition of biological activity, e.g., protease activity, of a variety of proteins, e.g., thrombin.
The thrombin activity reported herein (e.g., Table A) was obtained as follows. […] Thrombin was assayed in buffer containing 0.05 M Tris (pH 7.4), 0.015 M NaCl and 0.01% PEG-8000. The final concentration of enzyme used was 3 nM thrombin. […] All assays were performed in 96-well microtiter plates at room temperature (RT). […] Inhibitor IC50 values were determined by adding test compound as ten point, three-fold serial dilutions in buffer solution, as known in the art. The plate was read at 10 minutes after substrate addition. The IC50 was calculated by plotting the percent (%) inhibition against compound concentration and fitting the data to a constrained four parameter sigmoidal curve, as known in the art.

IC50 [nM]	Structure (SMILES)
< 100	CN(C)c1cccc2c(S(=O)(=O)Nc3ccc(C(=O)n4nc(-c5ccccc5)c(F)c4NCc4ccc(Cl)s4)cc3)cccc12 [Compound 58, N-[4-(5-[(5-chlorothiophen-2-yl)methyl]amino-4-fluoro-3-phenyl-1H-pyrazole-1-carbonyl)phenyl]-5-(dimethylamino)naphthalene-1-sulfonamide]
100 to 1000	CN(C)c1cccc2c(S(=O)(=O)Oc3ccccc3C(=O)n3nc(-c4ccccc4)c(F)c3NCc3ccc(Cl)s3)cccc12 [Compound 26, 2-(5-[(5-chlorothiophen-2-yl)methyl]amino-4-fluoro-3-phenyl-1H-pyrazole-1-carbonyl)phenyl 5-(dimethylamino)naphthalene-1-sulfonate]
< 100	CC(C)(C)C(=O)n1nc(-c2ccc3c(c2)CCCC3=O)c(F)c1NCc1ccc(Cl)s1 [Compound 29, 6-(5-[(5-chlorothiophen-2-yl)methyl]amino-1-(2,2-dimethylpropanoyl)-4-fluoro-1H-pyrazol-3-yl)-1,2,3,4-tetrahydronaphthalen-1-one]
< 100	O=C(c1ccc(N2CCOCC2)cc1)n1nc(C2CCOCC2)c(F)c1NCc1ccc(Cl)s1 [Compound 53, N-[(5-chlorothiophen-2-yl)methyl]-4-fluoro-1-[4-(morpholin-4-yl)benzoyl]-3-(oxan-4-yl)-1H-pyrazol-5-amine]
< 100	COC(C)(C)C(=O)n1nc(-c2ccccc2)c(F)c1NCc1ccc(Cl)s1 [Compound 12, 1-(5-[(5-chlorothiophen-2-yl)methyl]amino-4-fluoro-3-phenyl-1H-pyrazol-1-yl)-2-methoxy-2-methylpropan-1-one]
< 100	CC(C)(C)C(=O)n1nc(-c2ccccn2)c(F)c1NCc1ccccc1 [Compound 22, 1-[5-(benzylamino)-4-fluoro-3-(pyridin-2-yl)-1H-pyrazol-1-yl]-2,2-dimethylpropan-1-one]
< 100	CC(C)(C)C(=O)n1nc(-c2ccccc2)c(F)c1NCc1ccc(Cl)s1 [Compound 10, 1-(5-[(5-chlorothiophen-2-yl)methyl]amino-4-fluoro-3-phenyl-1H-pyrazol-1-yl)-2,2-dimethylpropan-1-one]
< 100	COCCOCC(C)(C)C(=O)n1nc(-c2ccccc2)c(F)c1NCc1ccc(Cl)s1 [Compound 13, 1-(5-[(5-chlorothiophen-2-yl)methyl]amino-4-fluoro-3-phenyl-1H-pyrazol-1-yl)-3-(2-methoxyethoxy)-2,2-dimethylpropan-1-one]
< 100	O=C(n1nc(C2CCOCC2)c(F)c1NCc1ccc(Cl)s1)C1(CO)CC1 [Compound 61, [1-(5-[(5-chlorothiophen-2-yl)methyl]amino-4-fluoro-3-(oxan-4-yl)-1H-pyrazole-1-carbonyl)cyclopropyl]methanol]
< 100	COc1ccccc1C(=O)n1nc(-c2ccccn2)c(F)c1NCc1ccccc1 [Compound 59, N-benzyl-4-fluoro-1-(2-methoxybenzoyl)-3-(pyridin-2-yl)-1H-pyrazol-5-amine]
< 100	CC(C)(C)C(=O)n1nc(-c2ccc(N3CCCC3=O)cc2)c(F)c1NCc1ccc(Cl)s1 [Compound 16, 1-[4-(5-[(5-chlorothiophen-2-yl)methyl]amino-1-(2,2-dimethylpropanoyl)-4-fluoro-1H-pyrazol-3-yl)phenyl]pyrrolidin-2-one]
< 100	COc1ccccc1C(=O)n1nc(-c2ccc(N3CCCC3=O)cc2)c(F)c1NCc1ccc(Cl)s1 [Compound 19, 1-[4-(5-[(5-chlorothiophen-2-yl)methyl]amino-4-fluoro-1-(2-methoxybenzoyl)-1H-pyrazol-3-yl)phenyl]pyrrolidin-2-one]
100 to 1000	O=C(N1CCC(c2n[nH]c(NCc3ccc(Cl)s3)c2F)CC1)C1(O)CC1 [Compound 21, 1-[4-(5-[(5-chlorothiophen-2-yl)methyl]amino-4-fluoro-1H-pyrazol-3-yl)piperidine-1-carbonyl]cyclopropan-1-ol]
